According to patent US20220142948A1, “COMPOSITIONS AND METHODS FOR MODULATING METABOLIC REGULATORS OF T CELL PATHOGENICITY” (The Broad Institute, Inc., priority 2019, published 2022):
“Also recorded” adds a separate entry of the source.

What was measured:
[1] = tested on: experimental autoimmune encephalomyelitis (EAE); test: Active EAE (MOG35-55/CFA immunization) with DFMO in drinking water; format: in vivo, mouse
Experimental: Experimental Autoimmune Encephalomyelitis (EAE). […] Equivalent of 40 μg MOG peptide was injected per mouse subcutaneously followed by pertussis toxin injection intravenously on day 0 and day 2 of immunization. Mice were treated with 0.5% DFMO in drinking water for 10 days as indicated. DFMO was replenished every third day.
Experimental Autoimmune Encephalomyelitis (EAE). […] Equivalent of 40 μg MOG peptide was injected per mouse subcutaneously followed by pertussis toxin injection intravenously on day 0 and day 2 of immunization. Mice were monitored and assigned grades for clinical signs of EAE using the following scoring system: 0, healthy; 1, limp tail; 2, impaired righting reflex or ataxic gait; 3, hind limb paralysis; 4, total limb paralysis; 5, moribund or death. Mice with a score of >4 were euthanized. If mice died during the course of the experiment, their clinical score of 5 was included in the analysis for the remainder of the experiment.

ODC = target: T1, ODC (Homo sapiens, UniProt P11926); details: cited from earlier work
T1 sequence (P11926 1-461): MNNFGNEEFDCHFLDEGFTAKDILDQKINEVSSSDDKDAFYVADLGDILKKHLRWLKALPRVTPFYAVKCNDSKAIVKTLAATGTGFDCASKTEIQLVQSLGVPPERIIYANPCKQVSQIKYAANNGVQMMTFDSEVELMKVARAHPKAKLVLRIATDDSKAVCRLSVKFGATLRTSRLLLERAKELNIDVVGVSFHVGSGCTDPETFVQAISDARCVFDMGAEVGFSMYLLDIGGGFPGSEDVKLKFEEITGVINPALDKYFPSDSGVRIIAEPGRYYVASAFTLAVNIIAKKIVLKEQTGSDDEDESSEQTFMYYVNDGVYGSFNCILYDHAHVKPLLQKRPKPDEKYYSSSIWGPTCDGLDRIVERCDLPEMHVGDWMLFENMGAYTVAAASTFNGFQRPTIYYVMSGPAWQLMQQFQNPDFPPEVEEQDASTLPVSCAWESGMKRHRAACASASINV

[2] = tested on: PGAM in Th17n and Th17p cells; test: 13C-glucose carbon tracing by LC/MS; format: cell-based, mouse
Experimental: For carbon tracing experiments Th17 cells were differentiated as described. Thereafter, cells were washed and cultured in media supplemented with 8 mM [U-13C]-glucose for 15 min or 3 hrs.
Let |Ci| be the number of carbon atoms in metabolite i, and let xc,i,j be the measured signal of metabolite i in sample j (subsequent to all normalization and QC procedures) in which there are exactly c 13C atoms. The comparisons of carbon flows are based on the statistic yi,j=(Σt=0^|C^i^|t·xt,i,j)/(|Ci|·Σt=0^|C^i^|xt,i,j)
which measures the 13C ratio of the total carbon contents for metabolite i in sample j.
To find metabolites with differential 13C relative abundance, Applicants computed the ratio yi,j of 13C out of the total carbon contents for each metabolite i in sample j. Let |Ci| be the number of carbon atoms in metabolite i, and let xc,i,j be the measured signal of metabolite i in sample j (subsequent to all normalization and QC procedures) in which there are exactly c 13C atoms.

[3] = tested on: experimental autoimmune encephalomyelitis (EAE); test: Adoptive transfer EAE with 2D2 TCR-transgenic Th17 cells differentiated in the presence of inhibitor; format: in vivo, mouse
Text: For adoptive transfer EAE, naïve 2D2 transgenic T cells were sorted and differentiated into Th17n cells+/−EGCG or Th17p+/−DHEA as described for three days followed by a resting phase in the presence of IL-23 alone for 2 days. Cells were then harvested and restimulated with plate-bound anti-CD3 and anti-CD28 for 2 days prior to transfer. 2-8 million cells were transferred per mouse intravenously.
For adoptive transfer EAE, naive T cells (CD4+CD44-CD62L+CD25-) were isolated from 2D2 TCR-transgenic mice and activated with anti-CD3 ([…]) and anti-CD28 ([…]) in the presence of differentiation cytokines for 68h. Cells were rested for 2 days and restimulated with plate-bound anti-CD3 (0.5 mg/ml for pathogenic condition; […] for non-pathogenic condition) and anti-CD28 ([…]) for 2 days prior to transfer. Equal number (2 to 8 million) cells were transferred per mouse intravenously.

Row | Molecule | EAE clinical score, onset and severity ([1]; 0.5% DFMO in drinking water for 10 days) | Foxp3+CD4+ T cells (Tregs) ([1]; lymphocytes isolated from CNS) | frequency of cytokine producing cells ([1]; lymphocytes isolated from CNS) | uptake of exogenous putrescine (ODC; cells treated in vivo with DFMO) | ODC activity (ODC; in vivo) | 13C contents of 2PG ([2]; Th17n and Th17p) | 13C ratio of 2PG after EGCG ([2]; Th17p) | optic neuritis/perineuritis in host mice ([3]; EGCG on Th17n, DHEA on Th17p) | EAE severity ([3]; Th17n cells with IL-23 in differentiation culture, vs IL-23+solvent) | number of CNS lesions (meninges and parenchyma) ([3]; Th17n transfer) | Wallerian degeneration in proximal spinal nerve roots ([3]; mouse, in vivo) | EAE incidence rate ([3]; recipients of EGCG-treated Th17n cells, control group 0/12) | meningeal inflammation ([3]; vs. Control mice)
1 | NCCC[C@](N)(C(=O)O)C(F)F [DFMO, 2-(difluoromethyl)ornithine] | effective in reducing EAE; also recorded: decreases the EAE score; also recorded: delays EAE onset; also recorded: significantly delayed the onset and severity of EAE; also recorded: significant impact in curtailing EAE | promotes Tregs; also recorded: increased frequency | no difference | significantly increase | irreversibly inhibit | – | – | – | – | – | – | – | –
2 | epigallocatechin-3-gallate [EGCG] | – | – | – | – | – | decrease; also recorded: disturbs | 33% | promoted | significantly more severe EAE | increased number of CNS lesions | only experimental group to produce Wallerian degeneration; also recorded: induce Wallerian degeneration; also recorded: greater | 10/12 | greater meningeal inflammation
